Measured values from the kinase profiling compilation of Christmann-Franck et al. (2016).

Columns and labels:
Assay in all cases: KINOMEscan competition binding
[1] = biological target: ABL1 (human), P00519 [M351T]
AURKB (human) = AURKB (human) (UniProt Q96GD4)
BMX (human) = BMX (human) (UniProt P51813)
CAMK1D (human) = CAMK1D (human) (UniProt Q8IU85)
CDC2L2 (human) = CDC2L2 (human) (UniProt Q9UQ88)
CDC42BPA (human) = CDC42BPA (human) (UniProt Q5VT25)
CDC42BPB (human) = CDC42BPB (human) (UniProt Q9Y5S2)
CDK14 (human) = CDK14 (human) (UniProt O94921)
CDK3 (human) = CDK3 (human) (UniProt Q00526)
CDK5 (human) = CDK5 (human) (UniProt Q00535)
CDK7 (human) = CDK7 (human) (UniProt P50613)
CLK1 (human) = CLK1 (human) (UniProt P49759)
DDR1 (human) = DDR1 (human) (UniProt Q08345)
Sequence of DDR1 (human) (Q08345 whole entry, looked up): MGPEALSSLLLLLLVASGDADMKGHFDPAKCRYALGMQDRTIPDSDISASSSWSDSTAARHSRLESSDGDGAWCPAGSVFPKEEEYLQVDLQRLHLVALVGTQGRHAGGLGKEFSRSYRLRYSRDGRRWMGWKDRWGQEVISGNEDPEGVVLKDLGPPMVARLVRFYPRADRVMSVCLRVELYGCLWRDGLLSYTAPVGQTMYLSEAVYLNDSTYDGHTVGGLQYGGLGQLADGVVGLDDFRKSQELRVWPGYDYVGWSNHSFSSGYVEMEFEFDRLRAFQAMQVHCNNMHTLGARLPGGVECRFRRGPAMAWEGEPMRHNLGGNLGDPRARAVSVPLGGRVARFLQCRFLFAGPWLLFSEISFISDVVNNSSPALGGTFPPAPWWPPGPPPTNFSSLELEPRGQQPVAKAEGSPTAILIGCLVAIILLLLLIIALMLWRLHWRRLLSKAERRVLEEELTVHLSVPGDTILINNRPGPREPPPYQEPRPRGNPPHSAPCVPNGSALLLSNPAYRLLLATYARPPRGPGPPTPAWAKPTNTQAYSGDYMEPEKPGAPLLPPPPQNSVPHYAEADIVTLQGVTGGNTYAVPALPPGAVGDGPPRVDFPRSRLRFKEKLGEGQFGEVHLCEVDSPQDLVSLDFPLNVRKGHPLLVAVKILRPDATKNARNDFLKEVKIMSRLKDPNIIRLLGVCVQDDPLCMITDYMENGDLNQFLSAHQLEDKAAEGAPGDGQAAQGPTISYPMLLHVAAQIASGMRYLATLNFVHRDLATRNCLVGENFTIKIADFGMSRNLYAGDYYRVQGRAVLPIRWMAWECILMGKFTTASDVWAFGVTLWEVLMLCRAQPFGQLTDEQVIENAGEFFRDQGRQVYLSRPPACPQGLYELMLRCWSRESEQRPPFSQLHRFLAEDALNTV

DDR2 (human) = DDR2 (human) (UniProt Q16832)
Sequence of DDR2 (human) (Q16832 whole entry, looked up): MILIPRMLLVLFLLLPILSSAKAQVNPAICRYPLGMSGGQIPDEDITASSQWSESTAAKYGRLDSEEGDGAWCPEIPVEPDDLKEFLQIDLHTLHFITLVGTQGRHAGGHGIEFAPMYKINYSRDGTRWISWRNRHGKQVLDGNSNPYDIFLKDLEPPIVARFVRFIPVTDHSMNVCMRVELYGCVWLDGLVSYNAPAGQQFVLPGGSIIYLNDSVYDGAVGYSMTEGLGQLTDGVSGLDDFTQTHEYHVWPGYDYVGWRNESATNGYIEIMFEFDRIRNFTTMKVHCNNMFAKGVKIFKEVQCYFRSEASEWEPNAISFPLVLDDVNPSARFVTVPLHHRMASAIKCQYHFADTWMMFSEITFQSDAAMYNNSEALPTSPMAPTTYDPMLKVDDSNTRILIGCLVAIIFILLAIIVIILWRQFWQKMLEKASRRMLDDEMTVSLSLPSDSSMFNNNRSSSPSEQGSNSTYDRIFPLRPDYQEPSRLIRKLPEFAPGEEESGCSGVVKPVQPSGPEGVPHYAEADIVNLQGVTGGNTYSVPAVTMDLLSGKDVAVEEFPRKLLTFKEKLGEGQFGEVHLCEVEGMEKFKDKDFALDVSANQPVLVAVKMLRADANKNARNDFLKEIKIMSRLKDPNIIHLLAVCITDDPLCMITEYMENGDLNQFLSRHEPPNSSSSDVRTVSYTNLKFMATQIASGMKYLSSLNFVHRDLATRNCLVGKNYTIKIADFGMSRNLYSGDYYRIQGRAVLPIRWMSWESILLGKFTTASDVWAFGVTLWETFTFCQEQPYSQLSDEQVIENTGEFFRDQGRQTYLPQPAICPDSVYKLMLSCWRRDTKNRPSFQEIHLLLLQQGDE

EPHA4 (human) = EPHA4 (human) (UniProt P54764)
EPHA5 (human) = EPHA5 (human) (UniProt P54756)
ERBB4 (human) = ERBB4 (human) (UniProt Q15303)
[2] = biological target: FGFR3 (human), P22607 [G697C]
[3] = biological target: FLT3 (human), P36888 [K663Q]
FLT4 (human) = FLT4 (human) (UniProt P35916)
GSK3A (human) = GSK3A (human) (UniProt P49840)
[4] = biological target: JAK1 JH1 catalytic (human) (UniProt P23458)
LIMK2 (human) = LIMK2 (human) (UniProt P53671)
MAP4K1 (human) = MAP4K1 (human) (UniProt Q92918)
MAPK15 (human) = MAPK15 (human) (UniProt Q8TD08)
Sequence of MAPK15 (human) (Q8TD08 whole entry, looked up): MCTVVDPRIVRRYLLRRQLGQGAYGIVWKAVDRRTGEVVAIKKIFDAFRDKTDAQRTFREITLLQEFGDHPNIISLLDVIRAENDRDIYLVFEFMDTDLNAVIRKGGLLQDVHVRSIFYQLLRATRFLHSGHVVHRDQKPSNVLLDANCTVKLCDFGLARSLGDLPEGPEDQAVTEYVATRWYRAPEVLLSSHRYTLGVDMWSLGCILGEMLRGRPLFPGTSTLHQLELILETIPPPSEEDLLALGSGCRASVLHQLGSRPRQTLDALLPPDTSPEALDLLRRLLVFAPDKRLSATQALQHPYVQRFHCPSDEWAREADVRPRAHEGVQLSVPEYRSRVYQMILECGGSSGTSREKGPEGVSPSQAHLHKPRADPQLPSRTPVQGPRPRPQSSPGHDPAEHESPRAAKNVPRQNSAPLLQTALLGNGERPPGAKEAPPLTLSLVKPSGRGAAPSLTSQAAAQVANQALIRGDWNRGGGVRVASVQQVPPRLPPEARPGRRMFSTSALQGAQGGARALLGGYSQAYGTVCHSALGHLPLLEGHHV

MAPK8 (human) = MAPK8 (human) (UniProt P45983)
MKNK2 (human) = MKNK2 (human) (UniProt Q9HBH9)
Sequence of MKNK2 (human) (Q9HBH9 whole entry, looked up): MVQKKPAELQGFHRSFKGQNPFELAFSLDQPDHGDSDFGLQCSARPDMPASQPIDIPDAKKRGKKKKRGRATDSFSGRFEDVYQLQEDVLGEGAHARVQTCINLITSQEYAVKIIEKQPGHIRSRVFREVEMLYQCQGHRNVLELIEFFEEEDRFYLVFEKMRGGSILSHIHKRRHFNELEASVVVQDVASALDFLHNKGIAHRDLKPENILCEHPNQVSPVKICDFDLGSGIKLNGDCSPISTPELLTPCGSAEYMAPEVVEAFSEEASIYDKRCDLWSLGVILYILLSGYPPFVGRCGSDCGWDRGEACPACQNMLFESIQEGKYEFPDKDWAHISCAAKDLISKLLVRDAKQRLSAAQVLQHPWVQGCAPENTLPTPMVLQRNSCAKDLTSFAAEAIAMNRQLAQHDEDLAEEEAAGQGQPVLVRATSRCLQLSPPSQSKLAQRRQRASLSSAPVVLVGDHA

MUSK (human) = MUSK (human) (UniProt O15146)
MYLK4 (human) = MYLK4 (human) (UniProt Q86YV6)
NTRK2 (human) = NTRK2 (human) (UniProt Q16620)
Sequence of NTRK2 (human) (Q16620 whole entry, looked up): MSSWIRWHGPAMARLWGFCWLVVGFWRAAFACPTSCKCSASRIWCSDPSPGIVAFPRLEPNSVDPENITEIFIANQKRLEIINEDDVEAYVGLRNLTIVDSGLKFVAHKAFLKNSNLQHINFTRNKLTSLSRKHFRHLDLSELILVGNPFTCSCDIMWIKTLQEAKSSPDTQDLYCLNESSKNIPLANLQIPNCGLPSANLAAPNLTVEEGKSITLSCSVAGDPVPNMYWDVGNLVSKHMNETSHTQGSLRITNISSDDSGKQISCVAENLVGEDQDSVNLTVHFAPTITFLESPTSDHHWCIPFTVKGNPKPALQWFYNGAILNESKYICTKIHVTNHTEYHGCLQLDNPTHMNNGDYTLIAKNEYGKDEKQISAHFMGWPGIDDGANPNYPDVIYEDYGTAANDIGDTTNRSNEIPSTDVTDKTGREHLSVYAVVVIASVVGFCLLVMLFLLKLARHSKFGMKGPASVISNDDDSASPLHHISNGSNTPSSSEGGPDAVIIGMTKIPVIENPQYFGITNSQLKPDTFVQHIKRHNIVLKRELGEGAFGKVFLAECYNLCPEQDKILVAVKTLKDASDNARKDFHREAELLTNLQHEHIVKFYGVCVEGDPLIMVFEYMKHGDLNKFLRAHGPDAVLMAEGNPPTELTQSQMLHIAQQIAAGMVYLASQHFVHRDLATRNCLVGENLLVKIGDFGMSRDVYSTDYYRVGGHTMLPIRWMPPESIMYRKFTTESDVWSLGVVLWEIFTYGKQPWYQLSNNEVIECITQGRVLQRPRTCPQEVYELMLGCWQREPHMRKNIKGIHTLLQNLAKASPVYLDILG

NTRK3 (human) = NTRK3 (human) (UniProt Q16288)
PDGFRA (human) = PDGFRA (human) (UniProt P16234)
PIK3CA (human) = PIK3CA (human) (UniProt P42336)
PRKAA1 (human) = PRKAA1 (human) (UniProt Q13131)
PRKD2 (human) = PRKD2 (human) (UniProt Q9BZL6)
PTK6 (human) = PTK6 (human) (UniProt Q13882)
Sequence of PTK6 (human) (Q13882 whole entry, looked up): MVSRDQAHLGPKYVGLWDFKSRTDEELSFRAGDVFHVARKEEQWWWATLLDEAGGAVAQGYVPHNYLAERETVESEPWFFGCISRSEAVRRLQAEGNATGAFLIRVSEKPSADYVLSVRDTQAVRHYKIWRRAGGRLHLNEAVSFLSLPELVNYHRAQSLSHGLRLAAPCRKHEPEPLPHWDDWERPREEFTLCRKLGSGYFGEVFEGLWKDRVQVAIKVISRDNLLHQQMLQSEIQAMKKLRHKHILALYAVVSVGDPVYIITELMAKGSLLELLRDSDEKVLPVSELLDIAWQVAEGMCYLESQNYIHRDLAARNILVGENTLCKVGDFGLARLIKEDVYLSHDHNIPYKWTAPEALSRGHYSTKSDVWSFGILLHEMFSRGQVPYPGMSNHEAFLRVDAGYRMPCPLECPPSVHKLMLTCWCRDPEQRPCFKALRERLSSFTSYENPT

RPS6KA4 KD2 (human) = RPS6KA4 KD2 (human) (UniProt O75676)
TAOK3 (human) = TAOK3 (human) (UniProt Q9H2K8)
Sequence of TAOK3 (human) (Q9H2K8 whole entry, looked up): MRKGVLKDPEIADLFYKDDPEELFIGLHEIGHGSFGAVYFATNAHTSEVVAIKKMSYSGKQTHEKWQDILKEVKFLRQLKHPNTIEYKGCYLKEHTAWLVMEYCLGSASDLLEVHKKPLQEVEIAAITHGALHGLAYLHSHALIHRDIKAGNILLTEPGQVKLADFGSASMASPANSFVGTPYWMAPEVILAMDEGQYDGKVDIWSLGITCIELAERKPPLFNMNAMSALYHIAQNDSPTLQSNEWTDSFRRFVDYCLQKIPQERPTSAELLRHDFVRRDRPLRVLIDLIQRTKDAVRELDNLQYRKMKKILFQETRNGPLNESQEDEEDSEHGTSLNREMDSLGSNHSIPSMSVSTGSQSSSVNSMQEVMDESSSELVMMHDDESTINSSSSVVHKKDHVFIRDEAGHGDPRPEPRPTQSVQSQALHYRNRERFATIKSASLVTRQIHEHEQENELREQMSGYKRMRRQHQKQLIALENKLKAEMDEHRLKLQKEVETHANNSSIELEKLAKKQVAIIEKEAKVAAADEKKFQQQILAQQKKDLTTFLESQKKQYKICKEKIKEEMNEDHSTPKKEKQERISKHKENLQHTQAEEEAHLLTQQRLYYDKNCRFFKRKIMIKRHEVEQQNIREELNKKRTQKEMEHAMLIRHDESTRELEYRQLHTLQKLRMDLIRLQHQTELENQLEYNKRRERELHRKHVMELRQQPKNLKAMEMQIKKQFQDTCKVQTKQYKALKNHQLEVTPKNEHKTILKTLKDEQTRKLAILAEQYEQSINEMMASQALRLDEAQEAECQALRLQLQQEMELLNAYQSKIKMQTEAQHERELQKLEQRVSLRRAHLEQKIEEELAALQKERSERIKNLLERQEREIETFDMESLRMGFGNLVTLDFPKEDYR

TESK1 (human) = TESK1 (human) (UniProt Q15569)
TNK1 (human) = TNK1 (human) (UniProt Q13470)

- Kd [1]: 3.2 nM
- Kd (AURKB (human)): 25000 nM
- Kd (BMX (human)): 820 nM
- Kd (CAMK1D (human)): 3800 nM
- Kd (CDC2L2 (human)): 170 nM
- Kd (CDC42BPA (human)): 30000 nM
- Kd (CDC42BPB (human)): 2000 nM
- Kd (CDK14 (human)): 110 nM
- Kd (CDK3 (human)): 26000 nM
- Kd (CDK5 (human)): 11000 nM
- Kd (CDK7 (human)): 520 nM
- Kd (CLK1 (human)): 10000 nM
- Kd (DDR1 (human)): 0.6 nM
- Kd (DDR2 (human)): 5.4 nM
- Kd (EPHA4 (human)): 31 nM
- Kd (EPHA5 (human)): 56 nM
- Kd (ERBB4 (human)): 210 nM
- Kd [2]: 3100 nM
- Kd [3]: 4.2 nM
- Kd (FLT4 (human)): 9.3 nM
- Kd (GSK3A (human)): 6000 nM
- Kd [4]: 29000 nM
- Kd (LIMK2 (human)): 3800 nM
- Kd (MAP4K1 (human)): 220 nM
- Kd (MAPK8 (human)): 100 nM
- Kd (MKNK2 (human)): 71 nM
- Kd (MUSK (human)): 34 nM
- Kd (MYLK4 (human)): 12000 nM
- Kd (NTRK2 (human)): 1000 nM
- Kd (NTRK3 (human)): 2200 nM
- Kd (PDGFRA (human)): 5.4 nM
- Kd (PIK3CA (human)): 27000 nM
- Kd (PRKAA1 (human)): 8700 nM
- Kd (PRKD2 (human)): 19000 nM
- Kd (PTK6 (human)): 200 nM
- Kd (RPS6KA4 KD2 (human)): 36000 nM
- Kd (TAOK3 (human)): 1600 nM
- Kd (TESK1 (human)): 38000 nM
- Kd (TNK1 (human)): 150 nM
SMILES: COc1cc2ncnc(Oc3cccc(NC(=O)Nc4cc(C(C)(C)C(F)(F)F)on4)c3)c2cc1OC
- Kd (MAPK15 (human)): 94 nM
